The results in this text go back to ChEMBL document CHEMBL6177934, “Chemical synthetic approaches to mimic the TRAIL: promising cancer therapeutics” (RSC Med Chem, 2024).

Starred links: 1 amine or outer side, 2 acyl side, 3 side chain; linkers in the order of their positions; H or OH if unused. Positions of bridges follow the written chain, without caps; N, C: chain ends. Residues, ends and D or L forms follow the SMILES beside them. Chains are numbered I, II in the order given. *: point of attachment. X1 = NC12CC3(C(=O)NCCCCCC(=O)[*:1])CC(C(=O)NCCCCCC(=O)[*:2])(C1)CC(C(=O)NCCCCCC(=O)[*:3])(C2)C3; X2 = O=C(CCC(=O)[*:1])NCCCC12CC3CC(CCCNC(=O)CCC(=O)[*:2])(C1)CC(CCCNC(=O)CCC(=O)[*:3])(C3)C2; Diglycolyl = O=C(COCC(=O)[*:2])[*:1]; X3 = CC(C)C[C@@H](C)N*

As a reminder, the Kd is the free concentration of one partner at which half of the binding sites on the other are occupied at equilibrium, for simple one-to-one binding. As usually defined, the IC50 is the concentration that gives 50% inhibition.

Sequence of Tumor necrosis factor receptor superfamily member 10B (O14763 whole entry): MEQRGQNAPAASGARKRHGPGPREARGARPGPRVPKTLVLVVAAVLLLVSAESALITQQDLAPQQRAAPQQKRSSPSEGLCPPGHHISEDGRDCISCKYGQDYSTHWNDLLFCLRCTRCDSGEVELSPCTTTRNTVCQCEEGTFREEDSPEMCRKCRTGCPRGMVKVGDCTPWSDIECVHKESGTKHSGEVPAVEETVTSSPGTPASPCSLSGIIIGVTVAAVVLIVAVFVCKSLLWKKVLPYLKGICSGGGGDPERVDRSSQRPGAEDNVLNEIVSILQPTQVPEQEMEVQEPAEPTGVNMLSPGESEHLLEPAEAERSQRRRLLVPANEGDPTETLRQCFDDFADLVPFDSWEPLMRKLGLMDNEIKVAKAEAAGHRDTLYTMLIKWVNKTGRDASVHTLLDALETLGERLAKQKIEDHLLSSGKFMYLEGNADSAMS

The first test has as its target Tumor necrosis factor receptor superfamily member 10B (Homo sapiens, UniProt O14763). Description: Binding affinity to human recombinant DR5 assessed as dissociation constant by SPR analysis. (In general: Surface plasmon resonance follows binding to a sensor surface in real time, without labels.)
With `CC[C@H](C)[C@@H]1NC(=O)[C@H](CCCCNC(=O)COCC(=O)NCCCC[C@@H]2NC(=O)[C@H](CC(N)=O)NC(=O)[C@H](CC(=O)O)NC(=O)[C@H](CC(C)C)NC(=O)[C@@H](NC(=O)[C@H](CC(=O)O)NC(=O)[C@H](Cc3c[nH]c4ccccc34)NC(C)=O)CSSC[C@@H](C(=O)N[C@H](C(=O)N[C@@H](CCCCN)C(=O)N[C@@H](CC(C)C)C(N)=O)C(C)C)NC(=O)[C@H](CCC(N)=O)NC(=O)[C@H](CCCNC(=N)N)NC(=O)[C@H](CCCNC(=N)N)NC(=O)CNC(=O)[C@H]([C@@H](C)CC)NC2=O)NC(=O)[C@H](CC(N)=O)NC(=O)[C@H](CC(=O)O)NC(=O)[C@H](CC(C)C)NC(=O)[C@@H](NC(=O)[C@H](CC(=O)O)NC(=O)[C@H](Cc2c[nH]c3ccccc23)NC(C)=O)CSSC[C@@H](C(=O)N[C@H](C(=O)N[C@@H](CCCCN)C(=O)N[C@@H](CC(C)C)C(N)=O)C(C)C)NC(=O)[C@H](CCC(N)=O)NC(=O)[C@H](CCCNC(=N)N)NC(=O)[C@H](CCCNC(=N)N)NC(=O)CNC1=O` (I: Ac-WDCLDNKIGRRQCVKL-NH2 / II: Ac-WDCLDNKIGRRQCVKL-NH2; disulfide I:3-I:13, II:3-II:13; linker I:7-II:7 via Diglycolyl), the Kd was found to be 2.29 nM.
On the same count and under the same terms, the same measure for `CC[C@H](C)[C@@H]1NC(=O)[C@H](CCCNC(=N)N)NC(=O)[C@H](CC(N)=O)NC(=O)[C@H](CC(=O)O)NC(=O)[C@H](CC(C)C)NC(=O)[C@@H](NC(=O)[C@H](CC(=O)O)NC(=O)[C@H](Cc2c[nH]c3ccccc23)NC(C)=O)CSSC[C@@H](C(=O)N[C@H](C(=O)N[C@@H](CCCCN)C(=O)N[C@@H](CC(C)C)C(N)=O)C(C)C)NC(=O)[C@H](CCC(N)=O)NC(=O)[C@H](CCCNC(=N)N)NC(=O)[C@H](CCCCNC(=O)COCC(=O)NCCCC[C@@H]2NC(=O)CNC(=O)[C@H]([C@@H](C)CC)NC(=O)[C@H](CCCNC(=N)N)NC(=O)[C@H](CC(N)=O)NC(=O)[C@H](CC(=O)O)NC(=O)[C@H](CC(C)C)NC(=O)[C@@H](NC(=O)[C@H](CC(=O)O)NC(=O)[C@H](Cc3c[nH]c4ccccc34)NC(C)=O)CSSC[C@@H](C(=O)N[C@H](C(=O)N[C@@H](CCCCN)C(=O)N[C@@H](CC(C)C)C(N)=O)C(C)C)NC(=O)[C@H](CCC(N)=O)NC(=O)[C@H](CCCNC(=N)N)NC2=O)NC(=O)CNC1=O` (I: Ac-WDCLDNRIGKRQCVKL-NH2 / II: Ac-WDCLDNRIGKRQCVKL-NH2; disulfide I:3-I:13, II:3-II:13; linker I:10-II:10 via Diglycolyl): 0.114 nM.
With `CC[C@H](C)[C@@H]1NC(=O)[C@H](CCCNC(=N)N)NC(=O)[C@H](CC(N)=O)NC(=O)[C@H](CC(=O)O)NC(=O)[C@H](CC(C)C)NC(=O)[C@@H](NC(=O)[C@H](CC(=O)O)NC(=O)[C@H](Cc2c[nH]c3ccccc23)NC(C)=O)CSSC[C@@H](C(=O)N[C@H](C(=O)N[C@@H](CCCCNC(=O)COCC(=O)NCCCC[C@H](NC(=O)[C@@H](NC(=O)[C@@H]2CSSC[C@H](NC(=O)[C@H](CC(=O)O)NC(=O)[C@H](Cc3c[nH]c4ccccc34)NC(C)=O)C(=O)N[C@@H](CC(C)C)C(=O)N[C@@H](CC(=O)O)C(=O)N[C@@H](CC(N)=O)C(=O)N[C@@H](CCCNC(=N)N)C(=O)N[C@@H]([C@@H](C)CC)C(=O)NCC(=O)N[C@@H](CCCNC(=N)N)C(=O)N[C@@H](CCCNC(=N)N)C(=O)N[C@@H](CCC(N)=O)C(=O)N2)C(C)C)C(=O)N[C@@H](CC(C)C)C(N)=O)C(=O)N[C@@H](CC(C)C)C(N)=O)C(C)C)NC(=O)[C@H](CCC(N)=O)NC(=O)[C@H](CCCNC(=N)N)NC(=O)[C@H](CCCNC(=N)N)NC(=O)CNC1=O` (I: Ac-WDCLDNRIGRRQCVKL-NH2 / II: Ac-WDCLDNRIGRRQCVKL-NH2; disulfide I:3-I:13, II:3-II:13; linker I:15-II:15 via Diglycolyl), the Kd came out at 1.24 nM.
For the compound “I: Ac-WDCLDNKIGRRQCVKL-NH2 / II: Ac-WDCLDNKIGRRQCVKL-NH2 / III: Ac-WDCLDNKIGRRQCVKL-NH2 (disulfide I:3-I:13, II:3-II:13, III:3-III:13; linker I:7-II:7-III:7 via X2)”, the Kd was determined as 0.05 nM.
On the same count and under the same terms, the same measure for “I: Ac-WDCLDNRIGKRQCVKL-NH2 / II: Ac-WDCLDNRIGKRQCVKL-NH2 / III: Ac-WDCLDNRIGKRQCVK-X3 (disulfide I:3-I:13, II:3-II:13, III:3-III:13; linker I:10-II:10-III:10 via X2)”: 0.539 nM; for “I: Ac-WDCLDNRIGRRQCVKL-NH2 / II: Ac-WDCLDNRIGRRQCVKL-NH2 / III: Ac-WDCLDNRIGRRQCVKL-NH2 (disulfide I:3-I:13, II:3-II:13, III:3-III:13; linker I:15-II:15-III:15 via X1)”: 9.1 nM; for “I: Ac-WDCLDNRIGRRQCVKL-NH2 / II: Ac-WDCLDNRIGRRQCVKL-NH2 / III: Ac-WDCLDNRIGRRQCVKL-NH2 (disulfide I:3-I:13, II:3-II:13, III:3-III:13; linker I:15-II:15-III:15 via X2)”: 0.88 nM.

For a further test, the system named is BJAB. Description: Antiproliferative activity against human BJAB cells assessed as reduction in cell viability incubated for 16 hrs by MTS assay. It counts as functional, cell-based.
Take “I: Ac-WDCLDNRIGRRQCVKL-NH2 / II: Ac-WDCLDNRIGRRQCVKL-NH2 / III: Ac-WDCLDNRIGRRQCVKL-NH2 (disulfide I:3-I:13, II:3-II:13, III:3-III:13; linker I:15-II:15-III:15 via X1)”: the IC50 turned out to be 31.2 nM.
